Entries after “also recorded” stand apart in the source; their conditions may differ.
Assays:
Type in all cases: in vivo, rat
[1] = system: Long-Evans male rats fed a 37% ethanol liquid diet; experiment: Lipid peroxidation in liver by HNE immunostaining; conditions: chronic ethanol fed rats
Description: (§1) An isocaloric (sucrose substituted for ethanol) diet was administered to pair fed control animals. After three weeks, both groups of rats were injected with either PPAR-α, γ, or δ agonists or saline as a control. […] The […] were given IP injections twice a week. At 6 weeks, the animals underwent 2/3 partial hepatectomy. The removed liver was used for histology, measurement of lipid peroxidation, DNA damage and insulin/IGF signaling as described below. Following ⅔ hepatectomy, the liver remnants were harvested 18, 24, 30 and 48 hours later to assess the regenerative response. To do this, animals were injected IP with BrdU 2 hours before harvest to measure its incorporation into hepatic nuclei as an index of DNA synthesis.
(§2) Paraffin sections (8 μm thick) were immunostained with monoclonal antibodies to 8-hydroxy-deoxyguanosine (8-OHdG) (Oxis Research) or 4-hydroxynonenol (HNE) (Chemicon International, Temecula, Calif.), to detect DNA damage and lipid peroxidation, respectively. Prior to immunostaining, the deparaffinized, re-hydrated sections were treated with 0.1 mg/ml saponin in phosphate buffered saline (10 mM sodium phosphate, 0.9% NaCl, pH 7.4; PBS) for 20 minutes at room temperature, followed by 3% hydrogen peroxide in methanol for 10 minutes to quench endogenous peroxidase activity, and then a 30-minute incubation in SuperBlock-TBS (Pierce Chemical Co., Rockford, Ill.) to block non-specific binding sites. The tissue sections were then incubated overnight at 4° C. with 0.5-1 μg/ml of primary antibody. […] The tissue sections were counterstained with hematoxylin, preserved under coverglass, and examined by light microscopy.

[2] = system: liver mRNA levels of albumin, ASBT, GFAP, KCR, desmin, and collagen; experiment: Liver cell profiling by qRT-PCR; conditions: for GFAP mRNA / collagen mRNA / desmin mRNA / ASBT mRNA / albumin mRNA: relative to vehicle
Excerpt: Adult male (˜200-250 g) Long Evans rats (Harlan Sprague Dawley, Inc., Indianapolis, Ind.) were pair-fed with isocaloric liquid diets (BioServ, Frenchtown, N.J.) containing 0% (control) or 37% ethanol by caloric content (9.2% v/v) for 8 weeks. During the week prior to initiating the experiment, rats were adapted to the ethanol-containing diets by sequentially feeding them for two days each with diets containing 8%, 17%, 24%, and then 37% ethanol. Chow fed control rats were also studied. Rats were monitored daily to ensure equivalent food consumption and maintenance of body weight. During the last 3 weeks of the experiment while being maintained on either the 0% or 37% ethanol-containing liquid diets, rats in both groups were administered twice weekly (Mondays and Thursdays) intra-peritoneal (i.p.) injections of vehicle (saline), a PPAR-α (GW7647; 25 μg/kg), PPAR δ (L-165,041; 2 μg/kg), or PPAR-γ (F-L-Leu; 20 μg/kg) agonist (CalBiochem, Carlsbad, Calif.). At the conclusion of the experiment, rats were anesthetized with vaporized isofluorane (SurgiVet, Inc. Waukesha, Wis.), and liver and blood were harvested for analysis. Liver tissue samples were immersion fixed in Histochoice (Amresco Corp., Solon, Ohio) and embedded in paraffin. Adjacent histological sections were stained with Hematoxylin and Eosin or Gomori's Trichrome and examined under code. In addition, liver tissue samples were snap-frozen in a dry ice methanol bath and then stored at −80° C. for later mRNA and protein studies. Throughout the experiment, rats were housed under humane conditions and kept on a 12-hour light/dark cycle with free access to food. All experiments were performed in accordance with protocols that conform to guidelines established by the National Institutes of Health and were approved by Institutional Animal Care and Use Committee at the Lifespan-Rhode Island Hospital.
Total RNA was extracted from liver tissue using TRIzol® reagent (Invitrogen, Carlsbad, Calif.) according to the manufacturer's protocol. RNA concentrations and purity were determined from the absorbances measured at 260 nm and 280 nm. RNA (2 μg) was reverse transcribed using the AMV First Strand cDNA synthesis kit (Roche Diagnostics Corporation, Indianapolis, Ind.) and random oligodeoxynucleotide primers. Quantitative reverse transcriptase polymerase chain reaction (qRT-PCR) assays were used to measure steady-state levels of specific mRNA transcripts. PCR amplifications were performed in 20 μl reactions containing cDNA generated from 2.5 ng of original RNA template, 300 nM each of gene specific forward and reverse primer (Table 2), and 10 μl of 2× QuantiTect SYBR Green PCR Mix (Qiagen Inc, Valencia, Calif.). The amplified signals were detected continuously with the Mastercycler ep realplex instrument and software (Eppendorf AG, Hamburg, Germany). The amplification protocol used was as follows: initial 15-minutes denaturation and enzyme activation at 95° C., 45 cycles of 95° C.×15 sec, 55°-60° C.×30 sec, and 72° C.×30 sec. Annealing temperatures were optimized using the temperature gradient program provided with the Mastercycler ep realplex software.
In preliminary studies, SYBR Green-labeled PCR products were evaluated by agarose gel electrophoresis, and authenticity was verified by nucleic acid sequencing. Complementary (c) DNAs were cloned into PCR-II vectors (Invitrogen, Carlsbad, Calif.). […] Serial dilutions of recombinant plasmid DNA containing target sequences were used as standards in PCR reactions, and regression lines generated from the Ct values of the standards were used to calculate mRNA abundance. Relative mRNA expression was expressed as the ng ratio of specific mRNA to ribosomal (r) 18S measured in the same samples because 18S is highly abundant and the levels are not modulated with disease state. Statistical comparisons were made using the calculated mRNA/18S ratios. […]

[3] = system: Long-Evans male rats fed a 37% ethanol liquid diet; experiment: DNA damage in liver by 8-OHdG immunostaining; conditions: chronic ethanol fed rats
Description: as §1, §2

[4] = control livers, relative to vehicle (not statistically significant)
[5] = ethanol-exposed livers, relative to vehicle (statistically significant)

| SMILES | hepatic lipid peroxidation (HNE immunostaining) [1] | KCR mRNA [2, 4] | GFAP mRNA ([2]; control rats) | collagen mRNA ([2]; controls) | desmin mRNA ([2]; ethanol-exposed livers) | KCR mRNA [2, 5] | GFAP mRNA ([2]; ethanol-exposed rats) | ASBT mRNA ([2]; ethanol-fed rats) | albumin mRNA ([2]; ethanol-fed rats) | collagen mRNA ([2]; ethanol-fed rats) | DNA damage (8-OHdG immunoreactivity) [3] | desmin mRNA ([2]; control group) | ASBT mRNA ([2]; control livers) | albumin mRNA ([2]; control livers) |
| --- | --- | --- | --- | --- | --- | --- | --- | --- | --- | --- | --- | --- | --- | --- |
| CC(C)(Sc1ccc(CCN(CCCCC2CCCCC2)C(=O)NC2CCCCC2)cc1)C(=O)O [PPAR-α, GW7647] | substantially improved | increased | significantly increased | increased | no significant effect | increased | significantly increased | significantly increased; also recorded: normalized | significantly increased; also recorded: normalized | further increased | protective effect | – | – | – |
| CC(C)C[C@H](NC(=O)OCC1c2ccccc2-c2ccccc21)C(=O)O [PPAR-γ, F-L-Leu] | substantially improved | increased | – | – | significantly increased | increased | significantly increased | did not significantly alter | did not significantly alter | significantly reduced | protective effect | significantly reduced | decreased | significantly increased |
| CCCc1c(OCCCOc2ccc(OCC(=O)O)cc2)ccc(C(C)=O)c1O [PPAR-δ, L-165,041] | substantially improved | increased | – | increased | no significant effect | increased | – | did not significantly alter; also recorded: normalized | significantly increased; also recorded: normalized | significantly reduced | most prominent protective effect; also recorded: superior to the α and γ agents in preventing hepatocyte damage | significantly reduced | decreased | significantly increased |
